# Measured values reported in US4064010A, “Purification of uricase” (Eastman Kodak Company, priority 1976, dated 1977).
# Molecular target: Micrococcus luteus NRRL B-8166 uricase
# Assay: Assay of uricase (spectrophotometric, disappearance of uric acid at 290 nm)
# Type: biochemical
# Method: Uricase was assayed spectrophotometrically by following the disappearance of uric acid at 290 nm using a modification of the procedure described by Mahler et. al, J. Biol. Chem., 216, p. 625, (1955). Assay tubes contained 2.7 ml 50 mM KPi buffer pH 8.6, 0.1 mM sodium EDTA, 0.05 ml 6 mM urate, plus enzyme and water to give a final volume of 3.0 ml. Changes or additions to the assay mixtures were made when necessary. Tubes were incubated for 5 minutes at 30° C; the reaction was started by adding enzyme. Molar extinction coefficient for uric acid at 290 nm is 12,300. Activity was expressed in units of uricase activity, where a unit is that amount of enzyme which catalyzes the oxidation of one μmole of uric acid per minute at 30° C and pH 8.6.
Compound,Ki (read-out: inhibition constant for oxonate),"Km (substrate not given, the uricase assay uses urate, KPi buffer pH 8.6, 30° C, read-out: Michaelis constant)"
O=C(O)c1nc(=O)[nH]c(=O)[nH]1 [oxonate],4.5 µM,–
O=c1[nH]c(=O)c2[nH]c(=O)[nH]c2[nH]1 [uric acid],–,37 µM
